Counter-ions that a name gives are not always drawn.
Assays:
[1] = system: MCF-7 breast carcinoma cells; test: PARP cleavage Western blot (apoptosis) in MCF-7 cells; type: cell-based; settings: FIG. 5; for 85 kDa PARP cleavage product: agent alone
From the text: Tamoxifen-induced apoptosis is blocked in tumor cells overexpressing GP88. FIG. 5 is a western blot measuring the level of the PARP cleavage product (85 kDa band) in MCF-7 breast carcinoma cells treated with tamoxifen, tamoxifen+GP88, tamoxifen+estradiol, GP88, and a control. […] Tamoxifen-induced apoptosis was blocked by treatment with estradiol, a compound known to block tamoxifen-induced apoptosis, as shown by the decrease in the 85 kDa band in the lane labeled “Tamoxifen+estradiol.” Tamoxifen-induced apoptosis was blocked by treatment with GP88 to the same extent as treatment by estradiol.
(§1) The present invention also provides methods of inducing apoptosis comprising administering a GP88 antagonist to a tumor cell. Apoptosis can be induced in all tumor cell types including, but not limited to, neuroblastoma, glioblastoma, astrocytoma, sarcomas, and cancers of the prostate, blood, cerebrospinal fluid, liver, kidney, breast, head and neck, pharynx, thyroid, pancreas, stomach, colon, colorectal, uterus, cervix, bone, bone marrow, testes, brain, neural tissue, ovary, skin, and lung. Apoptosis can be detected in tumor cells by a variety of techniques including, but not limited to for example, detection of Bcl-2 levels or detection of the PARP cleavage product, DNA ladder, and production of apoptotic cells. PARP or poly(ADP-ribose) polymerase is a nuclear binding protein that detects DNA strand breaks and participates in DNA repair. Cleavage of PARP is a hallmark of caspases-dependent apoptosis. When apoptosis takes place, the 116 kDa intact PARP is cleaved in two fragments, 85 kDa and 25 kDa. Detection of intact and cleaved forms of PARP by Western Blot analysis with anti-PARP antibody has been established as an apoptosis assay. Duriez et al., Biochem Cell Biol. 75: 337-49, 1997. […]
(§2) MCF-7 cells or O4 cells were seeded at a density of 7×10^5 cells in 60-mm dish in DMEM/F12 supplemented with 5% FBS. […] Intact and cleaved forms of PARP were detected using a mouse monoclonal anti-PARP antibody from Oncogene Research (San Diego, Calif.). α-Actin was used for normalizing the loading.

[2] = system: tamoxifen resistant MCF-7 cells; test: PARP cleavage Western blot (apoptosis) in tamoxifen resistant MCF-7 cells; type: cell-based; settings: agent alone, FIG. 8
From the text: as §1, with “kDa.” for “kDa. Detection of intact and cleaved forms of PARP by Western Blot analysis with anti-PARP antibody has been established as an apoptosis assay. Duriez et al., Biochem Cell Biol. 75: 337-49, 1997.”
as §2

[3] = system: O4 cells (GP88 overexpressing cells); test: tumor growth of O4 cells in ovariectomized nude mice; type: in vivo
From the text: Athymic ovariectomized female nude mice were implanted with an estradiol pellet one day before being injected (S.C) with either MCF-7 cells or O4 cells. After 10 days when the tumors were visible, the mice received either a placebo pellet or tamoxifen pellet. Tumor growth was monitored for 45 days. At the end of the experiments, mice were euthanized and the tumors were excised and evaluated. […] In contrast, tumor volume in mice with tumor induced by O4 cells and untreated with tamoxifen increased from 75 mm^3 to 150 mm^3 in 45 days. Tamoxifen treatment of tumors overexpressing GP88 increased tumor volume more than 4 times while tumor volume of untreated GP88 overexpressing tumors increased by 2 times.

Bcl-2 [4] = test: Bcl-2 mRNA transcript RT-PCR in O4 cells; type: cell-based; settings: even at elevated doses, FIG. 6
From the text: (§3) Apoptosis is controlled by the ratio of apoptotic to anti-apoptotic factors, particularly Bcl-2, bcl-xl and bax. […] Zhang et al., Clin. Cancer Res. 5: 2971-7, 1999; Cameron et al., Eur. J. Cancer 36: 845-51, 2000. Alteration of Bcl-2 expression levels changes the bax:Bcl-2 ratio and alters susceptibility to apoptosis. O4 cells are MCF-7 cells transformed with a GP88 expression construct to overexpress GP88. Serrero et al., Proc. Natl. Acad. Sci. U.S.A. 97: 3993-8, 2000.
(§4) GP88 overexpression blocks down-regulation of Bcl-2 mRNA transcript in response to tamoxifen treatment. MCF-7 cells and MCF-7 cells overexpressing GP88 (O4 cells) were treated with 0 to 2 μm tamoxifen. FIG. 6. 5 μg of total RNA was reverse transcribed into single strand cDNA by Super Script II (BRL, Gaithersburg, Md.) using 20 ng random hexamer (Gibco) as primer. The reverse transcription reaction was carried out for 1 h at 42 C in […] Tris-HCl (pH8.3), 2.5 mM MgCl2, 50 mM KCl, DTT 0.01 M and dNTP (each 0.5 mM). A total of 30-35 PCR cycles depending on the gene amplified were performed, followed by electrophoresis on 1% agarose gel. The specific primer pairs used were as follows: for glyceraldehyde 3-phosphate dehydrogenase (GAPDH): forward primer 5′ […] 3′ (SEQ ID NO: 9), reverse primer, 5′ […] 3′ (SEQ ID NO: 10); for Bcl-2: forward primer 5′ […] 3′ (SEQ ID NO: 11), reverse primer 5′ […] […]

Bcl-2 [5] = test: Bcl-2 mRNA transcript RT-PCR in MCF-7 cells; type: cell-based; settings: all concentrations tested (0 to 2 μm tamoxifen), FIG. 6
From the text: as §3, §4

cyclin D1 = cyclin D1 expression (FIG. 11 lanes); type: cell-based
From the text: Tumors progress through various stages of growth and maturation leading to increased mobility of the tumor through the body. Therefore, tumor cells can be targeted at several stages during the progression of tumor growth and maturation. For example, GP88 antagonists inhibit tumor cell growth and proliferation. For example, GP88 induces expression of cyclin D1, a cell cycle regulatory protein involved in the growth and proliferation of tumor cells.

## CC/C(=C(\c1ccccc1)c1ccc(OCCN(C)C)cc1)c1ccccc1 [tamoxifen, tamoxifen citrate]
[1]
  85 kDa PARP cleavage product: significantly increased
[2]
  cleavage of PARP: does not cleave PARP
[3]; O4 cell tumors (overexpressing GP88), tamoxifen treatment, 45 days
  increase of tumor volume: more than 4 times
[3]; O4 cell tumors, ovariectomized nude mice with estradiol pellet, tamoxifen pellet, after 45 days, FIG. 9
  tumor volume after 45 days: about 225 mm^3
[3]; O4 cell tumors, ovariectomized nude mice with estradiol pellet, tamoxifen pellet, start value, FIG. 9
  tumor volume at start: 50 mm^3
Bcl-2 [4]
  Bcl-2 transcript: failed to down regulate
Bcl-2 [5]
  Bcl-2 transcript: induced down-regulation

## GP88: 88 kDa glycoprotein growth factor, epithelin/granulin precursor
[1]; agent added together with tamoxifen
  tamoxifen-induced apoptosis (85 kDa PARP cleavage product): blocked
[1]
  85 kDa PARP cleavage product: not in the presence of GP88
Cyclin D1
  expression of cyclin D1: stimulates

Source: US7368428B2, “Compositions and methods for restoring sensitivity of tumor cells to antitumor therapy and inducing apoptosis” (A&G Pharmaceutical, Inc., priority 2003, dated 2008)
